Measured values published in patent US20230381174A1, “THIONOESTER-DERIVATIVE OF RABEXIMOD FOR THE TREATMENT OF INFLAMMATORY AND AUTOIMMUNE DISORDERS” (Vironova Thionationl AB, priority 2020, published 2023).

Experiments:
[1] = test system: Reactive Oxygen Species (ROS) production in PBMCs; test: Isoluminol assay: ROS production in PMA-activated PBMCs; assay type: cell-based, human; conditions: PBMCs activated with PMA at 30 ng/ml; luminescence measured over 25 minutes; FIGS. 1 and 2
Excerpt: Oxygen metabolism has an important role in the pathogenesis of both rheumatoid arthritis and multiple sclerosis. Reactive oxygen species (ROS) produced in the course of cellular oxidative phosphorylation, and by activated phagocytic cells during oxidative bursts, exceed the physiological buffering capacity and result in oxidative stress. The excessive production of ROS can damage protein, lipids, nucleic acids, and matrix components. ROS also serve as important intracellular signaling molecules that amplify the synovial inflammatory-proliferative response.
Frozen PBMCs, isolated from human blood (Blodcentralen, Lund, Sweden) through gradient centrifugation using Ficoll, were thawed quickly, activated with PMA at 30 ng/ml and treated with Rabeximod or the inventive compound, at different concentrations ranging from 12.5 μg/ml with 1:2 dose titrations over 8 steps. Controls included were DMSO control, PMA at 30 ng/ml and 0 μg/ml of test items. […] Cell concentration was determined using a Scepter cell counter (Millipore Merck, MA, USA) and diluted at 2×10^6 cells/ml when added to the assay plate. The luminescence signal was measured over 25 minutes.
ROS production was investigated after treatment with the inventive compound or Rabeximod at different concentrations ranging from 12.5 μg/ml with 1:2 dose titrations over 8 steps. Luminescence signal was measured over 25 minutes.

[2] = test system: collagen antibody induced arthritis (CAIA); test: Collagen antibody induced arthritis (CAIA) mouse model; assay type: in vivo, mice (DBA/1); conditions: for histological (IHC) score of front paws compared with vehicle: 20 mg/kg, at study termination, score 0-3, FIG. 8; for adverse effects from treatments: CAIA mice, any of the doses tested (5, 10, 20 mg/kg s.c.); for disease severity (macroscopic arthritis score) compared with vehicle: not significant
Excerpt: The collagen antibody induced arthritis (CAIA) arthritis in mice is a model independent of both B and T cells. CAIA is an acute model of arthritis and the disease is induced with antibodies to collagen type II. The antibodies bind to cartilage, leading to activation of the immune system followed by recruiting of macrophages and granulocytes to the joints. After an LPS boost at day five, disease progression starts and reaches a maximum around day 15. CAIA model: Mice (DBA/1, 8-10 weeks old) were weighed at day −1 for determination of mean weight of animals in the experiment and for composition of groups. Groups were mixed within cages to avoid cage effects. The mice were injected i.v. with a cocktail of four (4) monoclonal antibodies against collagen type II (2 mg/mouse) on day 0. Day 5 the mice were injected with LPS (50 μg/mouse) i.p., in order to boost the disease. Dose preparation of test items were performed daily in corn oil. Disease was evaluated daily from day 3 in a blinded fashion using a macroscopic scoring system of the four limbs ranging from 0 to 15 (1 point for each swollen or red toe, 1 point for a swollen or red mid foot digit or knuckle, 5 points for a swollen ankle) resulting in a maximum total score of 60 for each mouse. Due to ethical restrictions, animals with a score exceeding 45 were removed from the experiment. Immunohistochemistry: Front paws from animals, in the vehicle, Rabeximod (20 mg/kg) and the inventive compound (20 mg/kg) groups, were collected at termination of the animals. The paws were immediately transferred to 4% formaldehyde containing vials for immersion fixation. The tissues were fired for 24 hours and then transferred to 70% EtOH and stored at +4° C. until staining. Paws were decalcified, paraffin embedded, sectioned and stained for hematoxylin and eosin (H&E). Resulting slides were photographed at high resolution. Images were used for morphology analysis to study cartilage destruction and infiltration of inflammatory cells in the joints. An overall assessment for the whole paw were scored (0-3), including evaluation of synovial inflammation, synovial pannus formation and bone destruction. Graphs and statistical analysis were performed using Prism 8 for Mac OS X (GraphPad Software, San Diego, CA, USA). Results are presented as mean values±SEM, if not otherwise stated. Statistics were calculated using a two-tailed non-parametric Mann-Whitney test where p<0.05 was considered significant. * represents a p-value<0.05, ** represents a p-value<0.01 and *** represents a p-value<0.001.

IL-1β = test: LPS assay: IL-1β release in whole blood; assay type: cell-based, human; conditions: LPS 500 ng/ml
Protocol: (§1) Inflammation can be induced in vitro by stimulation with LPS, manifested by the release of various cytokines. […] TNF-α, IL1β and IL-6 are important cytokines in the pathogenesis of RA and MS and therefore selected in this assay.
(§2) Whole blood was collected from an adult volunteer in Heparin tubes. LPS stimulation started within 60 minutes of blood draw. The blood was diluted with RPMI and then stimulated with LPS and incubated with different concentrations of either Rabeximod or the inventive compound. The samples were centrifuged and plasma harvested and analysed on Luminex to measure cytokines.
(§3) The release of cytokines and chemokines was investigated after stimulation of whole blood with LPS, and treatment with either the inventive compound or Rabeximod.

[3] = test system: pristane-induced arthritis (PIA); test: Pristane-induced arthritis (PIA) rat model; assay type: in vivo; conditions: 20 mg/kg s.c. days 5, 7, 9, 11, 13, 15
Excerpt: Pristane-induced arthritis (PIA) in rats is an animal model that mimics the criteria used for diagnosis of rheumatoid arthritis (RA). PIA is one of the most reproducible models of RA with high incidence and little variation in severity. Disease is characterized by a pronounced T cell dependent inflammatory response resulting in inflammation of peripheral joints. Disease is induced with a single injection of pristane and has a highly reproducible onset of arthritis between day 8-12. The most severe phase of arthritis is often between day 15-25 after induction and experiment can be terminated after 25-30 days. For disease induction rats were anaesthetized with IsoFlo vet (3%) and oxygen. The root of the tail was cleaned with EtOH and pristane was injected subcutaneously (s.c.) (volume 200 μl) approximately 0.5 cm from the root of the tail. A slight pressure was put on the injection site for 10 seconds after injections to prevent leakage of oil. Rats were removed from anaesthetics and the breathing was monitored until recovery was ensured. […] Disease was evaluated 3 times per week in a blinded fashion from day 10 using a macroscopic scoring system of the four limbs ranging from 0 to (1 point for each swollen or red toe, 1 point for a swollen or red mid foot digit or knuckle, […]) resulting in a maximum total score of 60 for each rat. […]

TNF-α = test: LPS assay: TNF-α release in whole blood; assay type: cell-based, human; conditions: LPS 500 ng/ml
Protocol: as §1, §2, §3

IL-6 = test: LPS assay: IL-6 release in whole blood; assay type: cell-based, human; conditions: LPS 500 ng/ml
Protocol: as §1, §2, §3

[4] = lower concentrations (from 312.5 nM, below 5000 nM)

Compound	concentration that inhibits ROS production completely [1] [µg/mL]	histological (IHC) score of front paws compared with vehicle [2]	adverse effects from treatments [2]	disease severity (macroscopic arthritis score) compared with vehicle ([2]; all three doses (5, 10 and 20 mg/kg) s.c. every other day from day 5, six administrations, FIG. 7)	level of IL-1β compared to Rabeximod (IL-1β; compound at 5000 nM, FIG. 5)	level of IL-1β compared to Rabeximod (IL-1β; [4])	RA score (macroscopic arthritis score) ([3]; all study time points measured, FIG. 9)	efficacy during the most severe phase of arthritis ([3]; compared with Rabeximod)	level of TNF-α compared to Rabeximod (TNF-α; compound at 5000 nM, FIG. 3)	level of TNF-α compared to Rabeximod (TNF-α; [4])	dose-response of arthritis severity compared to Rabeximod ([2]; 5, 10 and 20 mg/kg s.c.)	disease severity (macroscopic arthritis score) compared with vehicle ([2]; 10 and 20 mg/kg s.c. every other day from day 5, six administrations, FIG. 6)	level of IL-6 compared to Rabeximod (IL-6; compound at 5000 nM, FIG. 4)	level of IL-6 compared to Rabeximod (IL-6; [4])	melting point [°C]
Cc1cc2nc3c4cc(Cl)ccc4n(CC(=O)NCCN(C)C)c3nc2cc1C [Rabeximod, 2-(9-chloro-2,3-dimethyl-6H-indolo[2,3-b]quinoxalin-6-yl)-N-(2-(dimethylamino)ethyl)acetamide]	12.5	No significant difference	No adverse effects	small decrease in disease severity	–	–	–	–	–	–	–	–	–	–	–
Cc1cc2nc3c4cc(Cl)ccc4n(CC(=S)NCCN(C)C)c3nc2cc1C [inventive compound, 2-(9-chloro-2,3-dimethyl-6H-indolo[2,3-b]quinoxalin-6-yl)-N-(2-(dimethylamino)ethyl)ethanethioamide]	6.25	significantly lower	No adverse effects	–	significantly lower	trend of reduced cytokines levels	slightly lower	better efficacy than Rabeximod	significantly lower	trend of reduced cytokines levels	clear dose-response	small decrease in disease severity	significantly lower	trend of reduced cytokines levels	184 to 188
